Assay [1] has as its target Thymidine kinase (Herpes simplex virus 1). The experiment in a line: Inhibitory concentration on phosphorylation of [methyl-3H]-dTh by HSV-1 Thymidine Kinase.
Assay [2] addresses Thymidine kinase 2, mitochondrial (Homo sapiens) (UniProt O00142). The experiment in a line: Inhibitory concentration on phosphorylation of [methyl-3H]-dTh by human Thymidine Kinase 2.

Chain of Thymidine kinase 2, mitochondrial (Homo sapiens) (O00142 whole entry, looked up): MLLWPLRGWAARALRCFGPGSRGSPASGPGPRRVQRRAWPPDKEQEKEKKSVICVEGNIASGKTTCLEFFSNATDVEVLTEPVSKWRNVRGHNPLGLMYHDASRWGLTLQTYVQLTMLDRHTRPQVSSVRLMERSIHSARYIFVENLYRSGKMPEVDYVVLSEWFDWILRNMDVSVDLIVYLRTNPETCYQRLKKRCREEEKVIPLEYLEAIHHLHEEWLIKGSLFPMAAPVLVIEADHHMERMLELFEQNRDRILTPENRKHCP

On to `Cc1cn(C/C=C\CNCc2ccccc2)c(=O)[nH]c1=O` [1-(4-Benzylamino-but-2-enyl)-5-methyl-1H-pyrimidine-2,4-dione], for which the values for the IC50 in assay [1] and in assay [2] were greater than 500 µM and 57 µM, respectively.

Take `Cc1cn(C/C=C\CN(Cc2ccccc2)Cc2ccccc2)c(=O)[nH]c1=O` [1-(4-Dibenzylamino-but-2-enyl)-5-methyl-1H-pyrimidine-2,4-dione]: inhibition in assay [2] was half-maximal at 3.5 µM (IC50). With `Cc1cn(C/C=C\CNC(=O)c2cccc(C(F)(F)F)c2)c(=O)[nH]c1=O` [N-[4-(5-Methyl-2,4-dioxo-3,4-dihydro-2H-pyrimidin-1-yl)-but-2-enyl]-3-trifluoromethyl-benzamide], the 50% inhibitory concentration (IC50) came to 72 µM in assay [1] and 28 µM in assay [2].

A word on the IC50: it is the point on the concentration scale where inhibition reaches its midpoint. Lower therefore signals higher potency.

The values are drawn from BindingDB's records for doi:10.1016/s0960-894x(03)00639-5 (Instituto De Química Médica (Csic), 2003).
